{"source": "patent US12459899B2", "about": "“Isoquinolinone derivatives, method for preparing the same, and pharmaceutical composition for preventing or treating poly(ADP-ribose) polymerase-1-related diseases, comprising the same as active ingredient” (DIGMBIO. INC., priority 2019, dated 2025)"}
{"target": "PARP-1 (poly[ADP-ribose] polymerase 1) enzyme (Homo sapiens (Human), UniProt P09874)", "sequence (P09874 whole entry)": "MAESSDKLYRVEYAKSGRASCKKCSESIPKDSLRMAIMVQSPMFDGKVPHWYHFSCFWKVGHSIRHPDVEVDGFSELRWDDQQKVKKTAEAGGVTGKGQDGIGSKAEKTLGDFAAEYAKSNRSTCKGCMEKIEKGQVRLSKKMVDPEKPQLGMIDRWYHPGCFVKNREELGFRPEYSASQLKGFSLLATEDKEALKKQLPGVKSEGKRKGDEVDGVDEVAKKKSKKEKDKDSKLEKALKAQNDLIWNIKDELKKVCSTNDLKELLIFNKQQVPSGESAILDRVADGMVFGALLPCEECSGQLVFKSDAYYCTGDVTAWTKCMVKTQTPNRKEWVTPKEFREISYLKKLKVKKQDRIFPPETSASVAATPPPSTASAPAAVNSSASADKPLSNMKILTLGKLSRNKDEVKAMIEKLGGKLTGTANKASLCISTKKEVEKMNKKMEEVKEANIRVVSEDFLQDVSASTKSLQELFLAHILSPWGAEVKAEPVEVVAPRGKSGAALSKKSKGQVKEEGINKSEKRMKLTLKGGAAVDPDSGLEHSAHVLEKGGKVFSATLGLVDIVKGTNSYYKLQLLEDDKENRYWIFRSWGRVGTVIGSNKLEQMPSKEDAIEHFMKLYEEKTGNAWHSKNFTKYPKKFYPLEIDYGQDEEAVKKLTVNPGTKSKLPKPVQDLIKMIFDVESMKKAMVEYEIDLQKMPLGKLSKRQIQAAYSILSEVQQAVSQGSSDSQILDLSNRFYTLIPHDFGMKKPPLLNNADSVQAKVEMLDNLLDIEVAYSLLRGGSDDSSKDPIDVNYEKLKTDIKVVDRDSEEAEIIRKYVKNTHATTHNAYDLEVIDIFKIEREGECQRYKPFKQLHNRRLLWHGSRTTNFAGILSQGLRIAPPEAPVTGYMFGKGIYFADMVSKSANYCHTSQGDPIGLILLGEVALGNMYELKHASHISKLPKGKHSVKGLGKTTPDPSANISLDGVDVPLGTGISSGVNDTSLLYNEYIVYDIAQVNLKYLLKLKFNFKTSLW", "assay": "PARP-1 (poly[ADP-ribose] polymerase 1) enzyme inhibitory ability, Trevigen assay kit", "type": "biochemical", "settings": "1 nM compound; read-out: PAR P-1 Inhibitory ability at 1 nM", "how_it_was_run": "(§1)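 Human PARP-1 activity was measured with a Trevigen assay kit in histone-coated 96-well plates rehydrated with 50 μL of 1×PARP buffer for 30 minutes. Enzyme (0.5 unit/well) and compound were preincubated 10 minutes at room temperature, then 25 μL of 1×PARP cocktail with biotinylated NAD and activated DNA was added for 1 hour.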", "units": {"inhibition at 0.001 µM": "%"}}
{"smiles": "N#Cc1ccc(F)c(C2=CCN(C(=O)CCc3cc4ccc(F)cc4c(=O)[nH]3)CC2)c1", "note": "[Example 111, 4-fluoro-3-(1-(3-(7-fluoro-1-oxo-1,2-dihydroisoquinolin-3-yl)propanoyl)-1,2,3,6-tetrahydropyridin-4-yl)benzonitrile]", "inhibition at 0.001 µM": "< 50"}
{"smiles": "Cc1cc(F)cc2c(=O)[nH]c(CCC(=O)N3CCN(c4ccc(F)c(C#N)c4)CC3)cc12", "note": "[Example 158, 2-fluoro-5-(4-(3-(7-fluoro-5-methyl-1-oxo-1,2-dihydroisoquinolin-3-yl)propanoyl)piperazin-1-yl)benzonitrile]", "inhibition at 0.001 µM": "< 50"}
{"smiles": "COC(=O)c1cccc(N2CCN(CCCc3cc4ccc(F)cc4c(=O)[nH]3)CC2)c1", "note": "[Example 18, methyl 3-(4-(3-(7-fluoro-1-oxo-1,2-dihydroisoquinolin-3-yl)propyl)piperazin-1-yl)benzoate]", "inhibition at 0.001 µM": "< 50"}
{"smiles": "Cc1cc(F)cc2c(=O)[nH]c(CCC(=O)N3CC=C(c4ccc(F)cc4C#N)CC3)cc12", "note": "[Example 161, 5-fluoro-2-(1-(3-(7-fluoro-5-methyl-1-oxo-1,2-dihydroisoquinolin-3-yl)propanoyl)-1,2,3,6-tetrahydropyridin-4-yl)benzonitrile]", "inhibition at 0.001 µM": "< 50"}
{"smiles": "Cc1ccc(F)c2c(=O)[nH]c(CCCN3CC=C(c4ccc(C#N)c(F)c4)CC3)cc12", "note": "[Example 55, 2-fluoro-4-(1-(3-(8-fluoro-5-methyl-1-oxo-1,2-dihydroisoquinolin-3-yl)propyl)-1,2,3,6-tetrahydropyridin-4-yl)benzonitrile]", "inhibition at 0.001 µM": "50 to 80"}
{"smiles": "N#Cc1ccc(N2CCN(C(=O)CCc3cc4ccc(F)cc4c(=O)[nH]3)CC2)cn1", "note": "[Example 97, 5-(4-(3-(7-fluoro-1-oxo-1,2-dihydroisoquinolin-3-yl)propanoyl)piperazin-1-yl)picolinonitrile]", "inhibition at 0.001 µM": "< 50"}
{"smiles": "N#Cc1ccc(N2CCN(C(=O)CCc3cc4ccc(F)cc4c(=O)[nH]3)CC2)cc1F", "note": "[Example 101, 2-fluoro-4-(4-(3-(7-fluoro-1-oxo-1,2-dihydroisoquinolin-3-yl)propanoyl)piperazin-1-yl)benzonitrile]", "inhibition at 0.001 µM": "< 50"}
{"smiles": "O=C(CCc1cc2cccc(F)c2c(=O)[nH]1)N1CC=C(c2ccnc(F)c2)CC1", "note": "[Example 92, 8-fluoro-3-(3-(2′-fluoro-3,6-dihydro-[4,4′-bipyridine]-1(2H)-yl)-3-oxopropyl)isoquinolin-1(2H)-one]", "inhibition at 0.001 µM": "< 50"}
{"smiles": "N#Cc1ccc(OC2CCN(C(=O)CCc3cc4cccc(F)c4c(=O)[nH]3)CC2)cc1", "note": "[Example 255, 4-((1-(3-(8-fluoro-1-oxo-1,2-dihydroisoquinolin-3-yl)propanoyl)piperidin-4-yl)oxy)benzonitrile]", "inhibition at 0.001 µM": "< 50"}
{"smiles": "O=C(CCc1cc2cccc(F)c2c(=O)[nH]1)N1CCN(c2ccc(F)cc2F)CC1", "note": "[Example 78, 3-(3-(4-(2,4-difluorophenyl)piperazin-1-yl)-3-oxopropyl)-8-fluoroisoquinolin-1(2H)-one]", "inhibition at 0.001 µM": "< 50"}
{"smiles": "Cc1cc(F)cc2c(=O)[nH]c(CCC(=O)N3CCC(Nc4ccc(C(F)(F)F)cc4)CC3)cc12", "note": "[Example 265, 7-fluoro-5-methyl-3-(3-oxo-3-(4-((4-(trifluoromethyl)phenyl)amino)piperidin-1-yl)propyl)isoquinolin-1(2H)-one]", "inhibition at 0.001 µM": "< 50"}
{"smiles": "N#Cc1ccc(NC2CCN(CCCc3cc4ncccc4c(=O)[nH]3)CC2)cn1", "note": "[Example 251, 5-((1-(3-(5-oxo-5,6-dihydro-1,6-naphthyridin-7-yl)propyl)piperidin-4-yl)amino)picolinonitrile]", "inhibition at 0.001 µM": "< 50"}
{"smiles": "O=C(CCc1cc2cccc(F)c2c(=O)[nH]1)N1CC=C(c2ccccc2F)CC1", "note": "[Example 82, 8-fluoro-3-(3-(4-(2-fluorophenyl)-3,6-dihydropyridin-1(2H)-yl)-3-oxopropyl)isoquinolin-1(2H)-one]", "inhibition at 0.001 µM": "< 50"}
{"smiles": "N#Cc1ccc(N2CCN(CCCc3cc4ncccc4c(=O)[nH]3)CC2)nc1", "note": "[Example 222, 6-(4-(3-(5-oxo-5,6-dihydro-1,6-naphthyridin-7-yl)propyl)piperazin-1-yl)nicotinonitrile]", "inhibition at 0.001 µM": "< 50"}
{"smiles": "Cc1ccc(F)c2c(=O)[nH]c(CCC(=O)N3CC=C(c4ccnc(F)c4)CC3)cc12", "note": "[Example 144, 8-fluoro-3-(3-(2′-fluoro-3,6-dihydro-[4,4′-bipyridine]-1(2H)-yl)-3-oxopropyl)-5-methylisoquinolin-1(2H)-one]", "inhibition at 0.001 µM": "< 50"}
{"smiles": "Cc1ccc(F)c2c(=O)[nH]c(CCC(=O)N3CCC(Nc4ccc(C(F)(F)F)cc4)CC3)cc12", "note": "[Example 266, 8-fluoro-5-methyl-3-(3-oxo-3-(4-((4-(trifluoromethyl)phenyl)amino)piperidin-1-yl)propyl)isoquinolin-1(2H)-one]", "inhibition at 0.001 µM": "< 50"}
{"smiles": "N#Cc1ccc(NC2CCN(C(=O)CCc3cc4cccc(F)c4c(=O)[nH]3)CC2)cc1", "note": "[Example 256, 4-((1-(3-(8-fluoro-1-oxo-1,2-dihydroisoquinolin-3-yl)propanoyl)piperidin-4-yl)amino)benzonitrile]", "inhibition at 0.001 µM": "< 50"}
{"smiles": "N#Cc1ccc(N2CCN(C(=O)CCc3cc4ncccc4c(=O)[nH]3)CC2)nc1", "note": "[Example 242, 6-(4-(3-(5-oxo-5,6-dihydro-1,6-naphthyridin-7-yl)propanoyl)piperazin-1-yl)nicotinonitrile]", "inhibition at 0.001 µM": "< 50"}
{"smiles": "N#Cc1ccc(OC2CC3CCC(C2)N3C(=O)CCc2cc3cccc(F)c3c(=O)[nH]2)cc1", "note": "(stereo not shown) [Example 274, 4-((8-(3-(8-fluoro-1-oxo-1,2-dihydroisoquinolin-3-yl)propanoyl)-8-azabicyclo[3.2.1]octan-3-yl)oxy)benzonitrile]", "inhibition at 0.001 µM": "< 50"}
{"smiles": "CC(C)C(=O)N1CCN(C(=O)CCc2cc3ccc(F)cc3c(=O)[nH]2)CC1", "note": "[Example 188, 7-fluoro-3-(3-(4-isobutyrylpiperazin-1-yl)-3-oxopropyl)isoquinolin-1(2H)-one]", "inhibition at 0.001 µM": "< 50"}
{"smiles": "Cc1ccc(F)c2c(=O)[nH]c(CCC(=O)N3CCN(c4ccc(C#N)nc4)CC3)cc12", "note": "[Example 124, 5-(4-(3-(8-fluoro-5-methyl-1-oxo-1,2-dihydroisoquinolin-3-yl)propanoyl)piperazin-1-yl)picolinonitrile]", "inhibition at 0.001 µM": "< 50"}
{"smiles": "COC(=O)c1ccc(NC2CCN(C(=O)CCc3cc4c(C)ccc(F)c4c(=O)[nH]3)CC2)cc1", "note": "[Example 268, methyl 4-((1-(3-(8-fluoro-5-methyl-1-oxo-1,2-dihydroisoquinolin-3-yl)propanoyl)piperidin-4-yl)amino)benzoate]", "inhibition at 0.001 µM": "< 50"}
{"smiles": "N#Cc1cc(F)cc(C2=CCN(C(=O)CCc3cc4cccc(F)c4c(=O)[nH]3)CC2)c1", "note": "[Example 84, 3-fluoro-5-(1-(3-(8-fluoro-1-oxo-1,2-dihydroisoquinolin-3-yl)propanoyl)-1,2,3,6-tetrahydropyridin-4-yl)benzonitrile]", "inhibition at 0.001 µM": "< 50"}
{"smiles": "Cc1cc(F)cc2c(=O)[nH]c(CCC(=O)N3CCN(C(=O)C4CCC4)CC3)cc12", "note": "[Example 181, 3-(3-(4-(cyclobutanecarbonyl)piperazin-1-yl)-3-oxopropyl)-7-fluoro-5-methylisoquinolin-1(2H)-one]", "inhibition at 0.001 µM": "< 50"}
{"smiles": "N#Cc1ccc(N2CCN(C(=O)CCc3cc4ncccc4c(=O)[nH]3)CC2)cn1", "note": "[Example 243, 5-(4-(3-(5-oxo-5,6-dihydro-1,6-naphthyridin-7-yl)propanoyl)piperazin-1-yl)picolinonitrile]", "inhibition at 0.001 µM": "< 50"}
{"smiles": "Cc1cc(F)cc2c(=O)[nH]c(CCC(=O)N3C4CCC3CN(c3ccc(F)cc3)C4)cc12", "note": "[Example 215, 7-fluoro-3-(3-(3-(4-fluorophenyl)-3,8-diazabicyclo[3.2.1]octan-8-yl)-3-oxopropyl)-5-methylisoquinolin-1(2H)-one]", "inhibition at 0.001 µM": "< 50"}
{"smiles": "Cc1ccc(F)c2c(=O)[nH]c(CCC(=O)N3CCN(C(=O)C4CCCC4)CC3)cc12", "note": "[Example 175, 3-(3-(4-(cyclopentanecarbonyl)piperazin-1-yl)-3-oxopropyl)-8-fluoro-5-methylisoquinolin-1(2H)-one]", "inhibition at 0.001 µM": "< 50"}
{"smiles": "O=C(CCc1cc2cccc(F)c2c(=O)[nH]1)N1CCN(C(=O)C2CCCO2)CC1", "note": "(stereo not shown) [Example 190, 8-fluoro-3-(3-oxo-3-(4-(tetrahydrofuran-2-carbonyl)piperazin-1-yl)propyl)isoquinolin-1(2H)-one]", "inhibition at 0.001 µM": "< 50"}
{"smiles": "N#Cc1ccc(N2CC3CCC(C2)N3C(=O)CCc2cc3cccc(F)c3c(=O)[nH]2)nc1", "note": "[Example 206, 6-(8-(3-(8-fluoro-1-oxo-1,2-dihydroisoquinolin-3-yl)propanoyl)-3,8-diazabicyclo[3.2.1]octan-3-yl)nicotinonitrile]", "inhibition at 0.001 µM": "< 50"}
{"smiles": "N#Cc1cc(N2CCN(C(=O)CCc3cc4ccc(F)cc4c(=O)[nH]3)CC2)ccc1F", "note": "[Example 109, 2-fluoro-5-(4-(3-(7-fluoro-1-oxo-1,2-dihydroisoquinolin-3-yl)propanoyl)piperazin-1-yl)benzonitrile]", "inhibition at 0.001 µM": "< 50"}
{"smiles": "Cc1ccc(F)c2c(=O)[nH]c(CCC(=O)N3C4CCC3CN(c3ccc(F)nc3)C4)cc12", "note": "[Example 211, 8-fluoro-3-(3-(3-(6-fluoropyridin-3-yl)-3,8-diazabicyclo[3.2.1]octan-8-yl)-3-oxopropyl)-5-methylisoquinolin-1(2H)-one]", "inhibition at 0.001 µM": "< 50"}
{"smiles": "Cc1cc(F)cc2c(=O)[nH]c(CCC(=O)N3CCN(C(=O)C(C)C)CC3)cc12", "note": "[Example 189, 7-fluoro-3-(3-(4-isobutyrylpiperazin-1-yl)-3-oxopropyl)-5-methylisoquinolin-1(2H)-one]", "inhibition at 0.001 µM": "< 50"}
{"smiles": "Cc1cc(F)cc2c(=O)[nH]c(CCC(=O)N3CCN(c4cc(C#N)ccc4F)CC3)cc12", "note": "[Example 156, 4-fluoro-3-(4-(3-(7-fluoro-5-methyl-1-oxo-1,2-dihydroisoquinolin-3-yl)propanoyl)piperazin-1-yl)benzonitrile]", "inhibition at 0.001 µM": "< 50"}
{"smiles": "Cc1ccc(F)c2c(=O)[nH]c(CCC(=O)N3CCN(c4ccc(C#N)c(F)c4)CC3)cc12", "note": "[Example 126, 2-fluoro-4-(4-(3-(8-fluoro-5-methyl-1-oxo-1,2-dihydroisoquinolin-3-yl)propanoyl)piperazin-1-yl)benzonitrile]", "inhibition at 0.001 µM": "< 50"}
{"target": "PARP-1 (poly[ADP-ribose] polymerase 1) enzyme (Homo sapiens (Human), UniProt P09874)", "assay": "PARP-1 (poly[ADP-ribose] polymerase 1) enzyme inhibitory ability, Trevigen assay kit", "type": "biochemical", "settings": "PARP-1 enzyme activity", "how_it_was_run": "as §1", "units": {"IC50": "nM"}}
{"smiles": "Cc1ccc(F)c2c(=O)[nH]c(CCCN3CC=C(c4ccc(C#N)c(F)c4)CC3)cc12", "note": "[Example 55, 2-fluoro-4-(1-(3-(8-fluoro-5-methyl-1-oxo-1,2-dihydroisoquinolin-3-yl)propyl)-1,2,3,6-tetrahydropyridin-4-yl)benzonitrile]", "IC50": 1.77}
{"smiles": "N#Cc1ccc(N2CCN(C(=O)CCc3cc4ncccc4c(=O)[nH]3)CC2)nc1", "note": "[Example 242, 6-(4-(3-(5-oxo-5,6-dihydro-1,6-naphthyridin-7-yl)propanoyl)piperazin-1-yl)nicotinonitrile]", "IC50": 3.18}
{"smiles": "COC(=O)c1ccc(NC2CCN(C(=O)CCc3cc4c(C)ccc(F)c4c(=O)[nH]3)CC2)cc1", "note": "[Example 268, methyl 4-((1-(3-(8-fluoro-5-methyl-1-oxo-1,2-dihydroisoquinolin-3-yl)propanoyl)piperidin-4-yl)amino)benzoate]", "IC50": 8.59}
